Test results from US4496578A, “Antihypertensive sulfur-containing compounds” (Santen Pharmaceutical Co., Ltd., priority 1978, dated 1985).

Assays:
[1] = tested on: angiotensin I-converting enzyme; experiment: Percent inhibition of pressor response to angiotensin I in unanesthetized rats after oral administration (ACE inhibition in vivo); parameters: species or system Male Wistar strain rats
Procedure: As recently it has been clear that the compounds inhibiting angiotensin I-converting enzyme may be the curative potency against both renal hypertension and essential hypertension, the compounds of this invention are evaluated as antihypertensive agents by the following method.
Male Wistar strain rats weighing 200-300 g were used. Under ether anesthesia, polyethylene cannulae are inserted into carotid artery and jugular vein. The cannula to carotid artery is connected to an electric transducer, while the cannula to jugular vein is connected to an apparatus for continuous infusion. After the complete recovery from anesthesia, angiotensin I is infused intravenously in a dose of 300 ng/kg by the apparatus for continuous infusion, and the pressor response is recorded by polygraph (Nihon Koden, RM-150). The compounds of this invention suspended in 0.5% tragacanth solution are addministered orally in a dose of 0.3 ml per 100 g of body weight, and the pressor response to angiotensin I infused intravenously is measured with time.

[2] = tested on: male ddy-std. strain mice; experiment: Acute toxicity test in mice; format: in vivo; conditions: intraperitoneal, suspended in 0.5% tragacanth
Procedure: The male ddy-std. strain mice (4 weeks of age, weighing 19-21 g) were placed in a breeding room of constant temperature and humidity (23±1° C., 55±5%) and fed freely pellet diet (CE-2, Clea Japan, Inc.) and water ad. libitum for a week. The mice showing the normal growth were selected for the experiment.
Test compound is suspended in 0.5% tragacanth solution, and administered intraperitoneally in a dose of 0.5 ml per 20 g B.W.

[3] = 5 min after oral dose, mg/kg: 2 1.8, 2A 1.3, 2B 1.8, 22 1.5, 22A 1.0, 22B 1.4, 32 1.7, 32C 1.3, 64 1.9
[4] = 15 min after oral dose, mg/kg: 2 1.8, 2A 1.3, 2B 1.8, 22 1.5, 22A 1.0, 22B 1.4, 32 1.7, 32C 1.3, 64 1.9
[5] = 25 min after oral dose, mg/kg: 2 1.8, 2A 1.3, 2B 1.8, 22 1.5, 22A 1.0, 22B 1.4, 32 1.7, 32C 1.3, 64 1.9
[6] = 35 min after oral dose, mg/kg: 2 1.8, 2A 1.3, 2B 1.8, 22 1.5, 22A 1.0, 22B 1.4, 32 1.7, 32C 1.3, 64 1.9
[7] = 45 min after oral dose, mg/kg: 2 1.8, 2A 1.3, 2B 1.8, 22 1.5, 22A 1.0, 22B 1.4, 32 1.7, 32C 1.3, 64 1.9
[8] = 55 min after oral dose, mg/kg: 2 1.8, 2A 1.3, 2B 1.8, 22 1.5, 22A 1.0, 22B 1.4, 32 1.7, 32C 1.3, 64 1.9
[9] = 65 min after oral dose, mg/kg: 2 1.8, 2A 1.3, 2B 1.8, 22 1.5, 22A 1.0, 22B 1.4, 32 1.7, 32C 1.3, 64 1.9
[10] = 75 min after oral dose, mg/kg: 2 1.8, 2A 1.3, 2B 1.8, 22 1.5, 22A 1.0, 22B 1.4, 32 1.7, 32C 1.3, 64 1.9
[11] = 85 min after oral dose, mg/kg: 2 1.8, 2A 1.3, 2B 1.8, 22 1.5, 22A 1.0, 22B 1.4, 32 1.7, 32C 1.3, 64 1.9
[12] = 95 min after oral dose, mg/kg: 2 1.8, 2A 1.3, 2B 1.8, 22 1.5, 22A 1.0, 22B 1.4, 32 1.7, 32C 1.3, 64 1.9
[13] = 105 min after oral dose, mg/kg: 2 1.8, 2A 1.3, 2B 1.8, 22 1.5, 22A 1.0, 22B 1.4, 32 1.7, 32C 1.3, 64 1.9
[14] = 115 min after oral dose, mg/kg: 2 1.8, 2A 1.3, 2B 1.8, 22 1.5, 22A 1.0, 22B 1.4, 32 no value, 32C 1.3, 64 1.9

Row | Compound | Inhibition (%) of pressor response to angiotensin I [1, 3] [%] | Inhibition (%) of pressor response to angiotensin I [1, 4] [%] | Inhibition (%) of pressor response to angiotensin I [1, 5] [%] | Inhibition (%) of pressor response to angiotensin I [1, 6] [%] | Inhibition (%) of pressor response to angiotensin I [1, 7] [%] | Inhibition (%) of pressor response to angiotensin I [1, 8] [%] | Inhibition (%) of pressor response to angiotensin I [1, 9] [%] | Inhibition (%) of pressor response to angiotensin I [1, 10] [%] | Inhibition (%) of pressor response to angiotensin I [1, 11] [%] | Inhibition (%) of pressor response to angiotensin I [1, 12] [%] | Inhibition (%) of pressor response to angiotensin I [1, 13] [%] | Inhibition (%) of pressor response to angiotensin I [1, 14] [%] | acute toxicity, LD [2] [mg/kg]
1 | C[C@H](CS)C(=O)N1C(C(=O)O)CCC1c1ccccc1O (stereo partly drawn) [Compound 2A] | 20.0 | 40.0 | 37.5 | 36.5 | 33.7 | 30.0 | 28.2 | 20.0 | 30.0 | 24.8 | 21.0 | 20.0 | 
2 | C[C@H](CSC(=O)c1ccccc1)C(=O)N1C(C(=O)O)CCC1c1ccccc1O (stereo partly drawn) [Compound 2B] | 7.9 | 36.8 | 36.8 | 36.8 | 45.7 | 31.6 | 31.6 | 31.6 | 21.1 | 21.1 | 15.8 | 15.8 | 
3 | Cc1ccc(C(=O)SC[C@@H](C)C(=O)N2C(C(=O)O)CCC2c2ccccc2O)cc1 (stereo partly drawn) [Compound 2] | 39.3 | 58.1 | 64.0 | 60.0 | 73.0 | 57.2 | 55.0 | 54.5 | 42.0 | 39.5 | 42.0 | 37.0 | 
4 | C[C@H](CS)C(=O)N1CSC[C@H]1C(=O)O [Compound 22A, (4R)-3-[(2S)-3-mercapto-2-methylpropanoyl]-4-thiazolidinecarboxylic acid] | 34.0 | 51.5 | 49.7 | 45.0 | 37.5 | 30.2 | 30.2 | 30.2 | 28.0 | 19.8 | 10.2 | 8.0 | 
5 | C[C@H](CSC(=O)c1ccccc1)C(=O)N1CSC[C@H]1C(=O)O [Compound 22B, (4R)-3-[(2S)-S-benzoyl-3-mercapto-2-methylpropanoyl]-4-thiazoldinecarboxylic acid] | 45.4 | 60.7 | 60.6 | 45.4 | 45.4 | 45.4 | 42.4 | 36.4 | 30.3 | 21.2 | 21.2 | 21.2 | 
6 | Cc1ccc(C(=O)SC[C@@H](C)C(=O)N2CSC[C@H]2C(=O)O)cc1 [Compound 22] | 45.2 | 60.4 | 51.4 | 59.0 | 55.0 | 50.8 | 55.0 | 53.5 | 49.4 | 46.5 | 39.8 | 31.6 | 
7 | CC(=O)Oc1ccccc1C1SC[C@@H](C(=O)O)N1C(=O)CCSC(C)=O (stereo partly drawn) [Compound 32, (4R)-2-(2-Acetoxyphenyl)-3-(S-acetyl-3-mercaptopropanoyl)-4-thiazolidinecarboxylic acid] | 40.2 | 55.3 | 70.2 | 70.2 | 61.1 | 54.2 | 55.3 | 57.2 | 48.2 | 43.4 | 27.3 |  | > 500
8 | O=C(O)[C@@H]1CSC(c2ccccc2O)N1C(=O)CCS (stereo partly drawn) [Compound 32C] | 53.3 | 62.9 | 64.7 | 63.7 | 54.0 | 49.3 | 47.7 | 38.8 | 34.0 | 30.0 | 30.0 | 31.0 | 
9 | C[C@H](CSC(=O)c1ccccc1)C(=O)N1CSC[C@H]1C(=O)OCOC(=O)C(C)(C)C [Compound 64, (2,2-Dimethyl-1-oxopropoxy)methyl (4R)-3-[(2S)-S-benzoyl-3-mercapto-2-methylpropanoyl]-4-thiazolidinecarboxylate] | 30.0 | 59.5 | 69.5 | 59.9 | 55.7 | 53.5 | 47.1 | 37.2 | 36.5 | 30.8 | 27.8 | 24.5 | 
